Source: paper PMC6410080 (Viruses, 2019)
pIC50: −log10 of the molar value. Counter-ions that a name gives are not always drawn. Like-named read-outs stand apart in the source and are kept apart here.

How the values were obtained:
Huh7 cells [1] = test: MTT assay, Huh7 cells
H5N1 VLP = test: microbe, parasite or virus in culture; type: cell-based, influenza H5N1; conditions: Influenza A virus, H5N1, HeLa Kyoto, 48 h, read-out: IC50 H5N1
HIV-1 = test: microbe, parasite or virus in culture; type: cell-based, human immunodeficiency virus type 1; conditions: for pIC50: Human immunodeficiency virus 1, 24 h, read-out: IC50 HIV
SFV [2] = type: cell-based, Semliki Forest virus
VSV VLP = test: microbe, parasite or virus in culture; type: cell-based, vesicular stomatitis virus; conditions: Vesicular stomatitis virus, HeLa Kyoto, 24 h, read-out: IC50 VSV
HCV = test: microbe, parasite or virus in culture; type: cell-based, hepatitis C virus; conditions: Hepatitis C virus, Huh7.5, read-out: IC50 HCV
SFV E1 trimer formation = conditions: HeLa Kyoto, MOI 100; Chloroquine 100 μM
VSV_Blam_VLP fusion = test: microbe, parasite or virus in culture; type: cell-based; conditions: Vesicular stomatitis virus, HeLa Kyoto, read-out: Inhibition of VSV_Blam_VLP fusion compared to DMSO controls
RABV VLP = test: microbe, parasite or virus in culture; type: cell-based, rabies virus; conditions: Lyssavirus rabies, HeLa Kyoto, 24 h, read-out: IC50 RABV
viruses/VLPs tested = type: cell-based
SFV internalisation = type: cell-based, Semliki Forest virus
DENV-2 = DENV-2 infection assay / secondary screen (E protein staining); type: cell-based, dengue virus serotype 2; conditions: Dengue virus, DENV2, Huh-7, 24 h; for inhibition at 10 µM: read-out: % inhibition (DENV-2 screen)
VACV = test: microbe, parasite or virus in culture; type: cell-based, vaccinia virus; conditions: for pIC50: Orthopoxvirus vaccinia, HeLa Kyoto, 8 h, read-out: IC50 VACV
DENV-1 = test: microbe, parasite or virus in culture; type: cell-based, dengue virus; conditions: Dengue virus, DENV1, Huh-7, read-out: IC50 DENV-1
HSV-1 = test: microbe, parasite or virus in culture; type: cell-based, herpes simplex virus 1; conditions: 8 h; for pIC50: Human alphaherpesvirus 1, Vero, read-out: IC50 HSV (Vero)
[3] = system: Renilla luciferase expression (protein synthesis); type: cell-based
SFV [4] = test: microbe, parasite or virus in culture; type: cell-based, Semliki Forest virus; conditions: Semliki Forest virus; for pIC50: HeLa Kyoto, read-out: IC50 SFV (7 h); for inhibition at 10 µM: M-HeLa, 7 h, read-out: % inhibition (SFV screen)
in vitro [5] = conditions: human
YF17D = test: organism not typed; type: cell-based, yellow fever 17D; conditions: Huh-7, read-out: IC50 YF17D
ZIKV [6] = test: microbe, parasite or virus in culture; type: cell-based, Zika virus; conditions: Zika virus, Huh-7, read-out: IC50 ZIKV
SINV = test: microbe, parasite or virus in culture; type: cell-based, Sindbis virus; conditions: Sindbis virus, HeLa Kyoto, read-out: IC50 SINV
HeLa Kyoto cells = conditions: human
in vivo = conditions: CD1, mouse
EBOV VLP = test: microbe, parasite or virus in culture; type: cell-based, Ebola virus; conditions: Zaire ebolavirus, HeLa Kyoto, 48 h, read-out: IC50 EBOV
[7] = system: DID-labelled SFV hemifusion/fusion; type: cell-based, Semliki Forest virus; conditions: HeLa Kyoto, 10 μM (20 μM Raloxifene; Bafilomycin 100 nM), 40 min at 37 °C
in vitro [8] = conditions: human; remark: listed apart in the source
DENV-3 = test: microbe, parasite or virus in culture; type: cell-based, dengue virus; conditions: Dengue virus, DENV3, Huh-7, read-out: IC50 DENV-3
[9] = mouse, in vivo; cited from earlier work
Huh7 cells [10] = conditions: human
ZIKV [11] = conditions: AG129 mice; for Infectious virus in the blood at day 7 p.i.: immunofocus assay
[12] = 10 mg/kg
[13] = read-out: IC50 DENV-2 (7 + 17 h)

| SMILES | pIC50 (H5N1 VLP) | pIC50 (HIV-1) | Activity when added before SFV or 30 and 60 min after internalisation (SFV [2]) | Time of Addition (SFV [2]) | pIC50 (VSV VLP) | pIC50 (HCV) | SFV E1 trimer formation (SFV E1 trimer formation) | inhibition at 10 µM (VSV_Blam_VLP fusion) [%] | pIC50 (RABV VLP) | inhibition at 10 µM (DENV-2) [%] | pIC50 (DENV-2; [13]) | pIC50 (DENV-2; read-out: IC50 DENV-2 (24 h)) | pIC50 (DENV-1) | pIC50 (SFV [4]) | inhibition at 10 µM (SFV [4]) [%] | pIC50 (YF17D) | pIC50 (ZIKV [6]) | pIC50 (SINV) | pIC50 (EBOV VLP) | pIC50 (DENV-3) | other results |
| --- | --- | --- | --- | --- | --- | --- | --- | --- | --- | --- | --- | --- | --- | --- | --- | --- | --- | --- | --- | --- | --- |
| O=C(Nc1ccc([N+](=O)[O-])cc1Cl)c1cc(Cl)ccc1O [Niclosamide] | 5.85 | 5.48 | minor but reproducible decrease in activity | Before and after fusion | 5.46 | 6.70 | No trimers were observed | > 50 | 5.89 | 75.4 | 5.96 | 6.40 | 5.82 | 5.52 | 73.1 | > 6.52 | ~6.15 | 5.55 | 5.54 | 5.80 | TC50 DENV-2 (7 + 17 h) (Huh7 cells [1]; Huh7, compounds 7 h then compound-free media 17 h): >50 µM; TC50 DENV-2 (24 h) (Huh7 cells [1]; Huh7, compounds 24 h): 12.8 µM; Viruses Inhibited (viruses/VLPs tested): All tested; Internalised SFV E1/E2 after subtilisin treatment (SFV internalisation): Loss of E1/E2; Kinetics of SFV internalisation (subtilisin resistance) (SFV internalisation): remained lower compared to untreated control; pIC50 (VACV): 5.52; pIC50 (HSV-1): 5.89; Decrease of Renilla signal (protein synthesis) [3]: more than 50%; viability at 10 µM (in vitro [5]; % viability (SFV screen)): 104%; Peak blood concentration (CD1, mouse, in vivo): 40 µM; Blood level after 2 h (mouse, in vivo): undetectable; TC50 SFV (7 h) (HeLa Kyoto cells): >50 µM; TC50 SFV (7h) (HeLa Kyoto cells): >50000 µM; Tmax (in vivo; ip, 10 mg/kg): 15 min; Inhibition of DID-SFV de-quenching (in words) [7]: Strong inhibition of de-quenching; viability at 10 µM (in vitro [8]): 36.9% |
| CC[C@@]1([C@@H]2O[C@@H]([C@H]3O[C@@](O)(CO)[C@H](C)C[C@@H]3C)C[C@@H]2C)CC[C@H]([C@]2(C)CC[C@]3(C[C@H](O)[C@@H](C)[C@@H]([C@@H](C)[C@@H](OC)[C@H](C)C(=O)O)O3)O2)O1 [Monensin, Monensin sodium salt] | 6.05 | – | progressive and more dramatic decrease in activity | – | 6.15 | 5.60 | prevented trimer formation | > 50 | 6.10 | 100 | 5.35 | 5.42 | 5.21 | 5.96 | 81.4 | > 6.52 | 5.26 | 6.40 | 5.35 | ~5.44 | IC50 HIV (HIV-1; virus, HeLa TZM-bl, 24 h): No inhibition; Well tolerated dose [9]: up to 70 mg/kg; IC50 VACV (VACV): No inhibition; IC50 HSV (Vero) (HSV-1; virus, Vero cells): No inhibition; viability at 10 µM (in vitro [5]; % viability (SFV screen)): 108%; TC50 SFV (7 h) (HeLa Kyoto cells; 7 h): >50 µM; TC50 SFV (7h) (HeLa Kyoto cells; 7 h): >50000 µM; TC50 DENV-2 (7 + 17 h) (Huh7 cells [10]): >50 µM; TC50 DENV-2 (24 h) (Huh7 cells [10]; 24 h): >50 µM; viability at 10 µM (in vitro [8]): 81%; Infectious virus in the blood at day 7 p.i. (ZIKV [11]): cleared infectious virus from the blood by day 7; ZIKV blood titres at day 1 p.i. (ZIKV [11]; qRT-PCR and immunofocus assay, vs untreated): significantly reduced blood titres |
| CC(C)(C)c1cc(C=C(C#N)C#N)cc(C(C)(C)C)c1O [Tyrphostin A9] | > 6.30 | 5.96 | minor but reproducible decrease in activity | Before and after fusion | 5.39 | > 6.52 | No trimers were observed | > 50 | 5.85 | 99.7 | 5.92 | 6.40 | 5.85 | 5.54 | 73.5 | > 6.52 | > 6.52 | ~6.10 | 5.49 | 5.92 | Toxicity [12]: toxicity; Viruses Inhibited (viruses/VLPs tested): All tested; Internalised SFV E1/E2 after subtilisin treatment (SFV internalisation): Loss of E1/E2; pIC50 (VACV): 5.47; pIC50 (HSV-1): 5.82; Decrease of Renilla signal (protein synthesis) [3]: more than 50%; viability at 10 µM (in vitro [5]): 105%; Blood peak (Tyrphostin A9 1 mg/kg IP): 5 µM; Peak blood concentration (Tyrphostin A9 1 mg/kg PO, CD1 mice): 1.52 µM; concentration at 2 h (in vivo; 1 mg/kg): 20 nM; concentration at 8 h (in vivo; 1 mg/kg): 760 nM; Tmax (in vivo; po, 1 mg/kg): 60 min; Inhibition of DID-SFV de-quenching (in words) [7]: Strong inhibition of de-quenching; TC50 DENV-2 (7 + 17 h) (Huh7 cells [10]): >50 µM; TC50 DENV-2 (24 h) (Huh7 cells [10]): 28.5 µM; viability at 24 h, 10 µM (in vitro [8]): 50.5%; ZIKV blood titres at days 1 and 3 (ZIKV [11]; Tyrphostin A9 1 mg/kg PO, vs untreated): only minor and non significant differences; Infectious virus in the blood at day 7 p.i. (ZIKV [11]): infectious virus was detected in only two of six mice; ZIKV-infected CD14+CD11c+ dendritic cells in blood, day 7 p.i. (ZIKV [11]; without statistical significance): fewer infected CD14+CD11c+ dendritic cells; Reason for suspending administration (ZIKV [11]; Tyrphostin A9 1 mg/kg PO, after the fourth administration): toxicity and weight loss |
